Data from patent publication US20240366606A1, “MRGPRX2 ANTAGONISTS AND USES THEREOF” (The Regents of the University of California, priority 2021, published 2024).

What was measured:
MRGPRX2 [1] = experiment: BRET2 Gq activation, MRGPRX2 pocket mutants, HEK293T cells; assay type: cell-based, human
Experimental: (§1) Bioluminescence resonance energy transfer assay 2 (BRET2). To measure the receptor mediated G protein activation, HEK293T cells were plating either in six-well dishes containing 350-400 k cells per well, or 10-cm dishes at approximately 2 million per dish 20-24 h prior to transfection. The cells were then transfected with a 1:1:1:1 ratio of the receptor:GurLuc8:Gβ:GγGFP DNA. Transit 2020 (Mirus biosciences) was used to complex the DNA at a ratio of 3 μL Transit/μg DNA, in OptiMEM (GIBCO) at a concentration of 10 ng DNA per μL OptiMEM. After 24 h, the cells were plated in poly-L-lysine coated 96-well white clear bottom cell culture plates in plating media (DMEM+1% dialyzed FBS) at a density of 40-50,000 cells in 200 μl per well and incubated overnight. The next day, the media was carefully aspirated and cells were washed once with 60 μl of drug buffer (1×HBSS, 20 mM HEPES, 0.1% (w/v) BSA, pH 7.4), then 60 μl drug buffer containing coelenterazine 400a (nanolight technology) at 5 μM final concentration was added to each well and incubate for 5 min. Cells were then treated with 30 μl of 3× designated drug for an additional 5 minutes. After drug incubation, plates were read in an LB940 Mithras plate reader (Berthold Technologies) with a 395 nm (RLuc8-coelenterazine 400a) and 510 nm (GFP2) emission filters, at 1 s integration times. Each plate was read four times, and measurements from the fourth read were used in all analyses. BRET ratio was computed as the ratio of the GFP2 emission to rLuc8 emission. Data were normalized to % WT stimulation with indicated reference agonist and analyzed using nonlinear regression “log(agonist) vs. response” in GraphPad Prism 9.0. Log(agonist) vs normalized response—variable slope was used for (R)-ZINC-3573 pocket mutations (D184 Å, E164 Å, W243 Å, F244 Å, L247 Å, and W248 Å).

320 GPCRs = experiment: PRESTO-Tango GPCRome screening; assay type: cell-based; details: 3 μM
Experimental: GPCRome Screening. Screening of compounds against the PRESTO-Tango GPCRome was accomplished using previously described methods with several modifications (63). First, HTLA cells were plated in white 384-well clear bottom plates (Greiner) in DMEM (Sigma) with 1% (v/v) dialyzed FBS and 10 U per mL penicillin-streptomycin (Gibco). After 24 h, the cells were transfected using PEI (Sigma) with an in-plate adapted method (64). Briefly, 17 ng per well PRESTO-Tango GPCR DNAs were resuspended in OptiMEM (Gibco) and hybridized with PEI prior to dilution and distribution into 384-well plates and subsequent addition to cells. After overnight incubation, MS47134 at 5× final concentration (3 μM) diluted in DMEM with 1% (v/v) dialyzed FBS were added to cells without replacement of the medium for 18-20 h. On the day of assay, medium and drug solution were dumped and loaded with 20 ul per well of Bright-Glo reagent (Promega). Plates were incubated for 20 min in the dark and the luminescence was counted for cells using SpectraMax Luminescence reader. Dopamine receptor D2 serves as an assay control with 0.1 mM Quinpirole. Data were analyzed using GraphPad Prism 9.0.

MRGPRX4 [2] = target: T1, MRGPRX4 (Homo sapiens (Human), UniProt Q96LA9); experiment: MRGPRX4 agonist activity (FLIPR Ca2+ assay, concentration-response); assay type: cell-based
T1 sequence (Q96LA9 whole entry): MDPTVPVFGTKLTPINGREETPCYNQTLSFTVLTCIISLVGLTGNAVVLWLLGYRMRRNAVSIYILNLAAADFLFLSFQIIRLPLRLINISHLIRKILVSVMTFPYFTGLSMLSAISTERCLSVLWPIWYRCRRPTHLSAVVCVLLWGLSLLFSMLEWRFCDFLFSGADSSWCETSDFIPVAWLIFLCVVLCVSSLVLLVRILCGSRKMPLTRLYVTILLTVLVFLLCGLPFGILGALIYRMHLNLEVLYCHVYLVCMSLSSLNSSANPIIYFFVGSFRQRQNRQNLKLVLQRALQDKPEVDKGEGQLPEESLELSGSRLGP
Experimental: FLIPR Ca2+ assay. Tetracycline inducible MRGPRX2 or MRGPRX4 stable cells [Flp-In™ T-REx™-293 cell which is derived from HEK 293 cells (ATCC, CRL 1573)] were maintained in DMEM containing 10% (v/v) FBS, 100 units ml^−1 penicillin G, 100 μg ml^−1 streptomycin, 100 μg ml^−1 hygromycin B, and 15 μg ml^−1 blasticidin ^16. NK1 stably expressing cell were maintained in DMEM containing 10% (v/v) FBS, 100 units ml^−1 penicillin G and 100 μg ml^−1 streptomycin. On the day of assay, cells were plated into Poly-L-Lysine (PLL) coated 384-well black clear bottom cell culture plates with DMEM buffer, which is composed of 1% (v/v) dialyzed FBS, 100 units ml^−1 penicillin G, 100 μg ml^−1 streptomycin with 1 μg ml^−1 tetracycline at density of 20,000 cells in 40 μl per well for overnight. For NK1 stable cells, the same media used for MRGPRX2 or MRGPRX4 cells except the tetracycline were used. […] Once loaded in FLIPR (Molecular Devices), basal fluorescence was measured for 10 s, then 10 μl of test compounds were added followed by continued fluorescence measurement for an additional 120 s. […] Data were normalized to % reference compound stimulation and analyzed using nonlinear regression “log(agonist) vs. response” in GraphPad Prism 9.0.

[3] = target: Kir6.2/SUR1 potassium channel (Homo sapiens (Human), UniProt Q09428+Q14654); experiment: Electrophysiology of Kir6.2/SUR1 in HEK293 cells; assay type: cell-based; details: compared to nateglinide
Chain of Kir6.2/SUR1 potassium channel (Q09428 whole entry, the tested form may be a part): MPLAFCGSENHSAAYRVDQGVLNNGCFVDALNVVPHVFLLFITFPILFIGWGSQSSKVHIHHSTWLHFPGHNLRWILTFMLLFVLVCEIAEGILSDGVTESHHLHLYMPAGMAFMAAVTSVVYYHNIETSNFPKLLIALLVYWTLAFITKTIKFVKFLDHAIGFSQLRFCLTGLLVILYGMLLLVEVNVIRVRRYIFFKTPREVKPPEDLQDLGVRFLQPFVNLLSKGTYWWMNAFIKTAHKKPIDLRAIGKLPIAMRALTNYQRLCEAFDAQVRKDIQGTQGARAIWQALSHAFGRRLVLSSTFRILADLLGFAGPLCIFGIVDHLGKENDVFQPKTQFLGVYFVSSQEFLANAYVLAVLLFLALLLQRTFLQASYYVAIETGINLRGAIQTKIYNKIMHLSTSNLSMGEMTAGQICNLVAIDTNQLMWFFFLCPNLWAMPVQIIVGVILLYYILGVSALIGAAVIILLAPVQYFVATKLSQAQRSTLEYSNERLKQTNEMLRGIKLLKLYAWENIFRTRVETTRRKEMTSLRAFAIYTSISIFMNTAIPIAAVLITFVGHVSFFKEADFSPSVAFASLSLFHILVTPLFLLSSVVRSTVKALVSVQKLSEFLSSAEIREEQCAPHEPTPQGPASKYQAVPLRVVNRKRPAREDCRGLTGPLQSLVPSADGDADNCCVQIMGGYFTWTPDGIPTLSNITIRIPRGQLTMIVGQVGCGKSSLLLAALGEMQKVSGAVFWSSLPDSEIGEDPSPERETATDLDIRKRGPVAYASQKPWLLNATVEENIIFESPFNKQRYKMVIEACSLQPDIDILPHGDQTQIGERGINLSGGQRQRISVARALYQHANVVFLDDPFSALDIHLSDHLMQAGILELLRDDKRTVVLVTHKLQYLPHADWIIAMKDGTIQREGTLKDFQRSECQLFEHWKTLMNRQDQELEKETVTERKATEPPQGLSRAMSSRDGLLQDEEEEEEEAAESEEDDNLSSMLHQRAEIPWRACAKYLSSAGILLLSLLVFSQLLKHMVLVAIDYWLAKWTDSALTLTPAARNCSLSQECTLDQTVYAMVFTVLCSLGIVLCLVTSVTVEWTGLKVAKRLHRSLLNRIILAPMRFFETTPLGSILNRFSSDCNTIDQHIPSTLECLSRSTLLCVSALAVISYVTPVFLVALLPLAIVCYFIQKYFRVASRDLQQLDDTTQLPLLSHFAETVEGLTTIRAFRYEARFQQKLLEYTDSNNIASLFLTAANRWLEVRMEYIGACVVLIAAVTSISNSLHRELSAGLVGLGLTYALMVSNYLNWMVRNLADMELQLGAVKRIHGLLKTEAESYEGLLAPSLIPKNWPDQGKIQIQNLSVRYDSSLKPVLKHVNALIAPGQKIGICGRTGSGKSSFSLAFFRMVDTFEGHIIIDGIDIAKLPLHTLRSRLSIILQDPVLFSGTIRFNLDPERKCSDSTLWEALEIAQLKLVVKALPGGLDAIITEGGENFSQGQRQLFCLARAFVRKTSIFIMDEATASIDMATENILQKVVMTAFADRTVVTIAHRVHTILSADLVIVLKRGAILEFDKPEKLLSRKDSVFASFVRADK
Chain of Kir6.2/SUR1 potassium channel (Q14654 whole entry, the tested form may be a part): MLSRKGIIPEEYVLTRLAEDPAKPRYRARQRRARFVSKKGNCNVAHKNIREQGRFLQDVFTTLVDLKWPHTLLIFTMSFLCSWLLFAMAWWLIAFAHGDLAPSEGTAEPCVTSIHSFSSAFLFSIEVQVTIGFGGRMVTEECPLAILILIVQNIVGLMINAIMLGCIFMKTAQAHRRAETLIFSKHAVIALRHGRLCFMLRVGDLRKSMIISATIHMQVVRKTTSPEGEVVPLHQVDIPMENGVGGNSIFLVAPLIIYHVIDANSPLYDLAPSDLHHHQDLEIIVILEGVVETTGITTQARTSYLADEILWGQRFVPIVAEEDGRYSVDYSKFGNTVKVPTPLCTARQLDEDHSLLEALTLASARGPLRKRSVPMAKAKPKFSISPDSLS
Experimental: Electrophysiology. HEK293 cells were cultured in DMEM with 4.5 g L-^1 glucose, L-glutamine, and sodium pyruvate (Mediatech) containing 10% (v/v) FBS (Axenia BioLogix) and 1% (v/v) penicillin-streptomycin, at 37° C. and with 5% CO2. Cells were lifted with trypsin-EDTA (Life Technologies) and passaged to 6-well plates (Warner Instruments) 3-4 d before recording. Transient transfection was performed with Lipofectamine 2000 (Thermo Fisher Scientific) 2 days before recording. The plasmids of human Kir6.2 and SUR1 were the gift from Dr. Show-Ling Shyng (Oregon Health and Science University), and we fused mCherry fluorescent protein to the C-terminus of Kir6.2. The vector ratio for co-transfection of Kir6.2 to SUR1 was 1:10. Before recording, cells were lifted with trypsin-EDTA, kept in modified Tyrode's saline (140 mM NaCl, 5 mM KCl, 10 mM HEPES, 2 mM CaCl2), 1 mM MgCl2, 10 mM glucose, pH 7.2 ˜ 7.3 with HCl), and were used within 8 hours. For recording, an aliquot of cells was transferred to a recording chamber on a Nikon-TE2000 Inverted Scope (Nikon Instruments), and transfection was confirmed with fluorescent microscopy. The pipette solution contained: 145 mM KCl, 1 mM MgCl2, 5 mM EGTA, 2 mM CaCl2), 20 mM HEPES, 0.3 mM K2-ATP and 0.3 mM K2-ADP. Patch borosilicate pipettes (Sutter Instrument) were pulled from a Sutter P-97 puller with resistances of 2-3 MΩ. […]

MRGPRX4 [4] = target: MRGPRX4 (Homo sapiens, UniProt Q96LA9, Y130A); experiment: Mutagenesis of MRGPRX4, agonist-stimulated Gq activation; assay type: cell-based
Experimental: as §1

MRGPRX4 [5] = target: MRGPRX4 (Homo sapiens, UniProt Q96LA9, L83S); experiment: as above; assay type: cell-based
Experimental: as §1

MRGPRX4 [6] = target: T1, MRGPRX4; details: previously identified (ref. 17); cited from earlier work
MRGPRX2 [7] = target: MRGPRX2 (Homo sapiens, UniProt Q96LB1, F170A); experiment: BRET2 Gq activation, MRGPRX2 pocket mutants, HEK293T cells; assay type: cell-based
Experimental: as §1

MRGPRX2 [8] = target: MRGPRX2 (Homo sapiens, UniProt Q96LB1, W243A); experiment: as above; assay type: cell-based
Experimental: as §1

CN(C)[C@@H]1CCN(c2cc(-c3ccccc3)nc3ccnn23)C1 [(R)-ZINC-3573]
effect of substitution of D184(5.38) and E164(4.60) on efficacy (MRGPRX2 [1]): impaired the efficacy

C[C@]12CC3CC(C(=O)N[C@H](Cc4ccccc4)C(=O)O)(C1)C[C@@](C)(C3)C2 [MS47134]
off-target profiling at 320 GPCRs (320 GPCRs): activity only at MRGPRX4 and MRGPRX1
EC50 (MRGPRX4 [2]): 150 nM
improved selectivity for MRGPRX4 over the Kir6.2/SUR1 potassium channel [3]: 47 fold
effect of Y130(ICL2)A mutation on potency of Gq activation (MRGPRX4 [4]): reduced the potency
effect of L83S mutation on potency (MRGPRX4 [5]): greatly attenuated the potency

CC(C)[C@H]1CC[C@H](C(=O)N[C@H](Cc2ccccc2)C(=O)O)CC1 [nateglinide, reference compound]
effect of L83S mutation on potency (MRGPRX4 [5]): greatly attenuated the potency
agonist potency at MRGPRX4 (MRGPRX4 [6]): low micromolar agonist

cortistatin-14
reduction of potency by F170(ECL2)A mutation (MRGPRX2 [7]): 7 fold
effect of W243(6.55)A substitution on activity (MRGPRX2 [8]): completely reduced the activity
